The subject of test [1] is ACHN cells. The test is described as follows: Cell Titer Glo viability assay, ACHN cells. It is filed as cell-based. The settings on record: Homo sapiens, 144 h, absolute EC50. The method in brief: (§1)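 Cells grown in MEM with 10% FCS were seeded at 500 (A427), 400 (ACHN) or 250 (DAOY) per well and treated the next day with compound at 17 to 10 000 nM. Viability relative to untreated control was read at 144 h by CellTiter-Glo 2.0.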

Test [2] has as its system A427 cells. The test is described as follows: Cell Titer Glo viability assay, A427 cells. Type of test: cell-based. The settings on record: Homo sapiens, A-427, 144 h, absolute EC50. The method, then:
Each of an ACHN renal cell carcinoma cell line (ATCC) and a DAOY medulloblastoma cell line, and an A427 lung cancer line were cultured in Minimum Essential Medium Eagle supplemented with 10% fetal calf serum (Sigma), 1% Penicillin-Streptomycin and 10 mM HEPES buffer (HyClone). Cell cultures were kept in a humidified incubator at 37 °C and 5% CO2. Cells were routinely tested for Mycoplasma contamination.
ACHN cells, DAOY cells, or A427 cells were seeded at a density of 400, 250, or 500 cells per well respectively, in tissue culture treated 384 well plates (Corning Costar). After overnight incubation, cells were treated with drugs at concentrations ranging from 17 to 10 000 nM. Viability compared to untreated control was assessed at 144 h using Cell Titer Glo assay 2.0 (Promega). […] “NT” means the compounds was not tested in the indicated cells.

Test [3] deals with T1, Myt1 kinase (CDK1 Thr14 phosphorylation in ACHN renal cell carcinoma cells) (Homo sapiens, UniProt Q99640).
T1 construct: pCDK1 Thr14 AlphaLISA read-out
T1 sequence (Q99640 1-499): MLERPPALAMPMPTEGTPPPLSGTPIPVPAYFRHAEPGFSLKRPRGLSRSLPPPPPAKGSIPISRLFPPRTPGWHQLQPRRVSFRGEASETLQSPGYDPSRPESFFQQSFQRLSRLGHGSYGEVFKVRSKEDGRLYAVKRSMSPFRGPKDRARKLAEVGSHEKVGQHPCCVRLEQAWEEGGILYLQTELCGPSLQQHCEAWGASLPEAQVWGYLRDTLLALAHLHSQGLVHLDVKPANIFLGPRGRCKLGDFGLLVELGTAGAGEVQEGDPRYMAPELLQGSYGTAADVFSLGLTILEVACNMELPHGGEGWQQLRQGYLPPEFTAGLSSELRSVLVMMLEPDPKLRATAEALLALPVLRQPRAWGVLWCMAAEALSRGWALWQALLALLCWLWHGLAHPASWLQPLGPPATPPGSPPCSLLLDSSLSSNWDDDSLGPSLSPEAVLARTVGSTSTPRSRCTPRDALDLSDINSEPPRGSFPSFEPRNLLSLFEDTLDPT
Kind of test: AlphaLISA assay, Myt1 kinase target engagement (phospho-CDK1 Thr14) in ACHN cells. It is filed as cell-based. The settings on record: ACHN cells (marked *); 4 h treatment. In outline:
(§2)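 Cells seeded at 10,000 (DAOY) or 20,000 (ACHN) per well, treated 24 h later for 4 h with compound at 7–5000 nM. Lysates analysed by AlphaLISA SureFire Ultra phospho-CDK1 (Thr14) with donor/acceptor beads; EC50 from dose-response curves.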

Test [4] concerns the target T2, Myt1 kinase (recombinant PMYT-1) (Homo sapiens, UniProt Q99640).
T2 construct: full length PMYT-1 was expressed by baculovirus in insect cells; purchased Invitrogen A30984; host or cells: insect cells (baculovirus)
T2 sequence (Q99640 1-499): T1 sequence (Q99640 1-499)
The test is described as follows: Myt1 kinase binding assay (LanthaScreen Eu Kinase Binding Assay). The settings on record: 3 nM tracer 178, 2.5 nM PMYT-1, 1 nM Eu-labeled antibody; read-out: Myt1 kinase Binding IC50. In outline: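 The binding affinity of compounds for Myt1 kinase was measured with a LanthaScreen Europium (Eu) Kinase Binding Assay, a time-resolved FRET format in which test compounds compete against a labeled kinase tracer, and the results were expressed as IC50 values describing compound binding to Myt1.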

The target of test [5] is T3, Wee1A kinase (CDK1 Tyr15 phosphorylation in ACHN renal cell carcinoma cells) (Homo sapiens, UniProt P30291).
T3 construct: pCDK1 Tyr15 immunofluorescence read-out
T3 sequence (P30291 whole entry): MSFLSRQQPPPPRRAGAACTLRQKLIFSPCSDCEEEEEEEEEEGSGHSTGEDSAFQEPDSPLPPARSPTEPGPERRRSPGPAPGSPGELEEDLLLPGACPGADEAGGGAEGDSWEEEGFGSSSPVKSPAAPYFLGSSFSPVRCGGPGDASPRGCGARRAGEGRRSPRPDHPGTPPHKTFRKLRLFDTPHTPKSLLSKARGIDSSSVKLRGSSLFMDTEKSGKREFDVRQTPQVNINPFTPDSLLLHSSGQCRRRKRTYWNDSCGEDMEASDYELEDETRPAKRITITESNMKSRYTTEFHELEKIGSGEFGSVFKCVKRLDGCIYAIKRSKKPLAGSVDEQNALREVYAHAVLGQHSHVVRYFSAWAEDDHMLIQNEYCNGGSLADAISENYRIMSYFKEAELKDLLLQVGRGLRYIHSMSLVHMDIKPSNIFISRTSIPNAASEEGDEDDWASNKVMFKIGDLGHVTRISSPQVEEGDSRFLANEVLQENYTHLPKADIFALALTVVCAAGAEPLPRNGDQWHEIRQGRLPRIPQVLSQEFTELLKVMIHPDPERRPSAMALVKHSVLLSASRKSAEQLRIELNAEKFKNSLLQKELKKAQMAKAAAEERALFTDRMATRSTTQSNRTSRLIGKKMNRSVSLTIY
Kind of test: High-content imaging of pCdk1 Y15, Wee1A kinase target engagement in ACHN cells. Type of test: cell-based. The settings on record: 4 h treatment, nuclear positivity for pCdk1 Y15 vs DMSO control, read-out: CDK1 Tyr15 Phosphorylation EC50. In outline: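 ACHN cells exposed to compound for 4 h over 7–5,000 nM or 0.3–200 nM, then fixed and immunostained for pCDK1 Y15 with DAPI nuclear counterstain. The percentage of pCdk1 Y15 nucleus-positive cells relative to DMSO control was imaged per well; EC50 from dose-response curves.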

The target of test [6] is T4, recombinant human Wee1A kinase (Homo sapiens, UniProt P30291).
T4 construct: full length Wee1 kinase was expressed by baculovirus in insect cells; purchased Invitrogen PV3817; host or cells: insect cells (baculovirus)
T4 sequence (P30291 whole entry): as above
Kind of test: Wee1A kinase binding assay (LanthaScreen Eu time-resolved FRET). The settings on record: 30 nM tracer 178, 5 nM Wee1A kinase, 2 nM Eu-labeled antibody; 60 minutes at room temperature; read-out: Wee1A kinase Binding IC50. The method in brief:
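Full-length, baculovirus-expressed GST-tagged Wee1A (5 nM) was mixed with 2 nM Eu-anti-GST antibody, 30 nM kinase tracer 178 and compound (1% DMSO). Buffer was 50 mM HEPES pH 7.5, 10 mM MgCl2, 1 mM EGTA, 0.01% Brij-35, incubated 60 min at room temperature. TR-FRET 665/615 nm emission ratios from duplicates were curve-fitted.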

Test [7] relates to DAOY cells. Kind of test: Cell Titer Glo viability assay, DAOY cells. Type of test: cell-based. The settings on record: Homo sapiens, 144 h, absolute EC50. The method in brief: as §1
For test [8], the system named is RAS/TP53 mutated metastatic colorectal cancer. The settings on record: cited from earlier work.
In test [9] the test system is uterine serous carcinoma. The settings on record: phase II study, women with uterine serous carcinoma; cited from earlier work.
Test [10] addresses T5, Myt1 kinase (CDK1 Thr14 phosphorylation in DAOY medulloblastoma cells) (Homo sapiens, UniProt Q99640).
T5 construct: pCDK1 Thr14 AlphaLISA read-out
T5 sequence (Q99640 1-499): T1 sequence (Q99640 1-499)
Kind of test: AlphaLISA assay, Myt1 kinase target engagement (phospho-CDK1 Thr14) in DAOY cells. Type of test: cell-based. The settings on record: 4 h treatment, read-out: CDK1 Thr14 Phosphorylation EC50. In outline: as §2

A value given as a limit tells only on which side of the number the result lay.

These results are taken from patent US20260364080A1, “PYRAZOLO-PYRIMIDINONE COMPOUNDS FOR USE IN METHODS OF INHIBITING WEE1 A KINASE” (Acrivon Therapeutics, Inc., priority 2023, published 2026).

Take `CCn1c(=O)c2cnc(Nc3ccc4c(cnn4C)c3)nc2n1-c1cccc(OC2CCN(C)CC2)n1` [Compound 114, 2-ethyl-6-(1-methyl-1H-indazol-5-ylamino)-1-[6-(1-methyl-4-piperidyloxy)-2-pyridyl]-1,2-dihydro-3H-1,2,5,7-tetraazainden-3-one]: the EC50 in test [1] was not above 100 nM; in test [2], 100 to 500 nM; in [3], 500 to 1000 nM; in test [5], less than 100 nM; in test [7] it was not above 100 nM. In addition, the IC50 was 20 to 100 nM in test [4] and less than 10 nM in [6].

On to `C=CCn1c(=O)c2cnc(Nc3ccc(N4CCN(C)CC4)cc3)nc2n1-c1cccc(C(C)(C)O)n1` [AZD1775, adavosertib], for which the “effect compared to active monitoring” value in [8] is “shown effect compared to active monitoring”. For the same molecule, the clinical activity result in [9] was “promising results”.

With `C=CCn1c(=O)c2cnc(Nc3ccc4c(c3)ncn4C)nc2n1-c1cccc(OC2CCN(C)CC2)n1` [Compound 211, 2-allyl-6-(1-methyl-1H-1,3-benzimidazol-5-ylamino)-1-[6-(1-methyl-4-piperidyloxy)-2-pyridyl]-1,2-dihydro-3H-1,2,5,7-tetraazainden-3-one], the concentration for a half-maximal effect (EC50) is not above 100 nM in test [1]; not above 100 nM in test [2]; less than 100 nM in [5]; less than 200 nM in test [10]; not above 100 nM in [7]. In addition, the values for the IC50 in [4] and in [6] were 20 to 100 nM and less than 10 nM, respectively.
